Source: ChEMBL document CHEMBL2331487, “Synthesis and antiplasmodial and antimycobacterial evaluation of new nitroimidazole and nitroimidazooxazine derivatives” (ACS Med Chem Lett, 2013)
Values after ≈ are worked out from the molar mass of the structure shown.

Key:
[1] = tested on: Mycobacterium tuberculosis; assay: Antimycobacterial activity Mycobacterium tuberculosis H37Rv assessed as growth inhibition measured at day 7 by broth microdilution method; format: functional; settings: 168 h
[2] = Selectivity index, ratio of IC50 for rat L6 cells to IC50 for Plasmodium falciparum K1 by [3H] hypoxanthine uptake inhibition assay; format: toxicity, cell-based; settings: rat L6 cells versus Plasmodium falciparum K1, read-out: Ratio IC50
Plasmodium falciparum = assay: Antimalarial activity against Plasmodium falciparum K1 assessed as inhibition of [3H] hypoxanthine uptake by liquid scintillation counting; format: functional, organism-based
L6 = assay: Cytotoxicity against rat L6 cells after 72 hrs by fluorometric analysis; format: cell-based; settings: L6, 72 h

| Compound | MIC99 [1] | selectivity ratio [2] | IC50 (Plasmodium falciparum) | IC50 (L6) |
| --- | --- | --- | --- | --- |
| CC(C)(C)n1nnnc1C(NCCNc1ccnc2cc(Cl)ccc12)c1ccc(CO[C@@H]2COc3nc([N+](=O)[O-])cn3C2)cc1 (some centres undefined) | 0.313 µM (≈ 0.198 µg/mL) | 246 | 0.1 µM | 24.6 µM |
| CC(C)(C)n1nnnc1C(NCCCNc1ccnc2cc(Cl)ccc12)c1ccc(CO[C@@H]2COc3nc([N+](=O)[O-])cn3C2)cc1 (some centres undefined) |  | 85 | 0.485 µM | 41.5 µM |
| CC(C)(C)n1nnnc1C(NCCCCNc1ccnc2cc(Cl)ccc12)c1ccc(CO[C@@H]2COc3nc([N+](=O)[O-])cn3C2)cc1 (some centres undefined) | 0.625 µM (≈ 0.413 µg/mL) | 175 | 0.164 µM | 29.3 µM |
| COc1cc(NC(C)CCCNC(c2ccc(CO[C@@H]3COc4nc([N+](=O)[O-])cn4C3)cc2)c2nnnn2C(C)(C)C)c2ncccc2c1 (some centres undefined) | 0.625 µM (≈ 0.419 µg/mL) | 37 | 2.04 µM | 75.9 µM |
| COc1cc(NC(C)CCCNC(c2cccc(CO[C@@H]3COc4nc([N+](=O)[O-])cn4C3)c2)c2nnnn2C(C)(C)C)c2ncccc2c1 (some centres undefined) | 5 µM (≈ 3.35 µg/mL) | 145 | 0.985 µM | 143 µM |
| CN(CCO)CCNc1ccnc2cc(Cl)ccc12 | > 160 µM | 995 | 0.078 µM | 77.6 µM |
| CN(CCO)CCCNc1ccnc2cc(Cl)ccc12 | > 160 µM | 63 | 0.391 µM | 24.8 µM |
| O=[N+]([O-])c1cn2c(n1)OC[C@@H](OCCCNc1ccnc3cc(Cl)ccc13)C2 | 1.25 µM (≈ 0.505 µg/mL) | 12.8 | 10.5 µM | 134 µM |
| O=Cc1ccc(CO[C@@H]2COc3nc([N+](=O)[O-])cn3C2)cc1 | 0.25 µM (≈ 0.0758 µg/mL) |  |  |  |
| O=Cc1cccc(CO[C@@H]2COc3nc([N+](=O)[O-])cn3C2)c1 | 0.625 µM (≈ 0.19 µg/mL) | 0.54 | 62.6 µM | 34.3 µM |
| CN(C)C(c1ccc(CO[C@@H]2COc3nc([N+](=O)[O-])cn3C2)cc1)c1nnnn1C(C)(C)C (some centres undefined) | 0.625 µM (≈ 0.285 µg/mL) | 11.2 | 15.8 µM | 177 µM |
| CCN(CC)C(c1ccc(CO[C@@H]2COc3nc([N+](=O)[O-])cn3C2)cc1)c1nnnn1C(C)(C)C (some centres undefined) | 0.313 µM (≈ 0.152 µg/mL) | 14.2 | 7.95 µM | 113 µM |
| CC(C)(C)n1nnnc1C(c1ccc(CO[C@@H]2COc3nc([N+](=O)[O-])cn3C2)cc1)N1CCCC1 (some centres undefined) | 0.313 µM (≈ 0.151 µg/mL) | 8.65 | 8.7 µM | 75.2 µM |
| OCCNc1ccnc2cc(Cl)ccc12 | > 160 µM | 159 | 1.47 µM | 233 µM |
| OCCCNc1ccnc2cc(Cl)ccc12 | > 160 µM | 164 | 1.09 µM | 178 µM |
| O=[N+]([O-])c1cn2c(n1)OC[C@@H](O)C2 | 40 µM (≈ 7.41 µg/mL) |  | > 270 µM | 331 µM |
| NCCNc1ccnc2cc(Cl)ccc12 | > 160 µM | 71.2 | 0.298 µM | 21.2 µM |
| CCN(CC)CCCC(C)Nc1ccnc2cc(Cl)ccc12 (centres undefined) [CHLOROQUINE] | > 160 µM |  |  |  |
| NC[C@H]1O[C@H](O[C@H]2[C@H](O)[C@@H](O[C@H]3O[C@H](CO)[C@@H](O)[C@H](N)[C@H]3O)[C@H](N)C[C@@H]2N)[C@H](O)[C@@H](O)[C@@H]1O [KANAMYCIN] | 5.4 µM (≈ 2.62 µg/mL) |  |  |  |
| COc1cc([C@@H]2c3cc4c(cc3[C@H](O)[C@H]3COC(=O)[C@H]23)OCO4)cc(OC)c1OC [PODOFILOX] |  |  |  | 0.0193 µM |
| COc1cc(NC(C)CCCN)c2ncccc2c1 (centres undefined) [PRIMAQUINE] | 80 µM (≈ 20.7 µg/mL) |  | 0.643 µM |  |
| CN[C@@H]1[C@H](O[C@H]2[C@H](O[C@H]3[C@H](O)[C@@H](O)[C@H](N=C(N)N)[C@@H](O)[C@@H]3N=C(N)N)O[C@@H](C)[C@]2(O)C=O)O[C@@H](CO)[C@H](O)[C@H]1O [STREPTOMYCIN] | 0.27 µM (≈ 0.157 µg/mL) |  |  |  |
